In test [1] the test system is Beet Armyworm (Spodoptera exigua, LAPHEG) (BAW). Briefly: Bioassays on Beet Armyworm (BAW), 128-well diet tray assay. The test is classed as in vivo. The settings on record: for mortality at 5 µg/cm2: 168 h, diet tray, second instar larvae, five to seven days, read-out: Percent control (or mortality) BAW; for pest or weed control at 50 µg/cm2: Table ABC rating, Beet Armyworm. The procedure:
(§1) Example A: Bioassays on Beet Armyworm (Spodoptera exigua, LAPHEG) (“BAW”), Corn Earworm (Helicoverpa zea, Helize) (“CEW”), and Cabbage Looper (Trichoplusia ni, TRIPNI) (“CL”)
(§2) Certain molecules disclosed in this document were tested against BAW, CEW, and CL using procedures described in the following examples. In the reporting of the results, the “BAW, CEW, & CL Rating Table” was used (See Table Section).
Bioassays on BAW were conducted using a 128-well diet tray assay. one to five second instar BAW larvae were placed in each well (3 mL) of the diet tray that had been previously filled with 1 mL of artificial diet to which 50 μg/cm^2 of the test molecule (dissolved in 50 μL of 90:10 acetone-water mixture) had been applied (to each of eight wells) and then allowed to dry. Trays were covered with a clear self-adhesive cover and held at 25° C., 14:10 light-dark for five to seven days. Percent mortality was recorded for the larvae in each well; activity in the eight wells was then averaged. The results are indicated in the table entitled “Table ABC: Biological Results” (See Table Section).
(§3) Bioassays on BAW and CL were conducted according to the procedures outlined in Example A: Bioassays on Beet Armyworm (“BAW”) and Cabbage Looper (“CL”) using the indicated concentrations.

Test [2] has as its system Cabbage Looper (Trichoplusia ni, TRIPNI) (CL). The test can be described thus: Bioassays on Cabbage Looper (CL), 128-well diet tray assay. The settings on record: for mortality at 5 µg/cm2: 168 h, diet tray, second instar larvae, five to seven days, read-out: Percent control (or mortality) CL; for pest or weed control at 50 µg/cm2: Table ABC rating, Cabbage Looper. The test is classed as in vivo. As for the experimental part: as §1, §2
Bioassays on CL were conducted using a 128-well diet tray assay. one to five second instar CL larvae were placed in each well (3 mL) of the diet tray that had been previously filled with 1 mL of artificial diet to which 50 μg/cm^2 of the test molecule (dissolved in 50 μL of 90:10 acetone-water mixture) had been applied (to each of eight wells) and then allowed to dry. Trays were covered with a clear self-adhesive cover and held at 25° C., 14:10 light-dark for five to seven days. Percent mortality was recorded for the larvae in each well; activity in the eight wells was then averaged. The results are indicated in the table entitled “Table ABC: Biological Results” (See Table Section).
as §3

The mark [3] stands for this setting: 5 μg/cm^2 (first BAW/CL column pair).
The mark [4] stands for this setting: 5 μg/cm^2 as printed (second BAW/CL column pair).

Each structure is given as a SMILES string. Where two headings read alike, the source gives them in different places.

Take `O=C(NCC(F)(F)F)c1ccc(/C(F)=C/C(c2cc(Cl)c(Cl)c(Cl)c2)C(F)(F)F)cc1C(F)(F)F` (stereo not drawn) [F1, (Z)-4-(1,4,4,4-tetrafluoro-3-(3,4,5-trichlorophenyl)but-1-en-1-yl)-N-(2,2,2-trifluoroethyl)-2-(trifluoromethyl)benzamide]: the mortality at 5 µg/cm2 in test [1] (setting [3]), in test [1] (setting [4]), in test [2] (setting [3]) and in test [2] (setting [4]) was 100% throughout. The pest or weed control at 50 µg/cm2 in test [1] and in test [2] was 50 to 100% throughout.

Turning to `CC(NC(=O)c1ccc(/C(F)=C/C(c2cc(Cl)c(Cl)c(Cl)c2)C(F)(F)F)cc1C(F)(F)F)C(F)(F)F` (stereo not drawn) [F2, (Z)-4-(1,4,4,4-Tetrafluoro-3-(3,4,5-trichlorophenyl)but-1-en-1-yl)-2-(trifluoromethyl)-N-(1,1,1-trifluoropropan-2-yl)benzamide], the pest or weed control at 50 µg/cm2 in test [1] and in test [2] was 50 to 100% in each case.

Turning to `O=C(NC1CCC(F)(F)CC1)c1ccc(/C(F)=C/C(c2cc(Cl)c(Cl)c(Cl)c2)C(F)(F)F)cc1C(F)(F)F` (stereo not drawn) [F4, (Z)—N-(4,4-Difluorocyclohexyl)-4-(1,4,4,4-tetrafluoro-3-(3,4,5-trichlorophenyl)but-1-en-1-yl)-2-(trifluoromethyl)benzamide], the pest or weed control at 50 µg/cm2 in test [1] and in test [2] was 50 to 100% each time.

As to `O=C(c1ccc(/C(F)=C/C(c2cc(Cl)c(Cl)c(Cl)c2)C(F)(F)F)cc1Br)N1CCCC1` (stereo not drawn) [F5, (Z)-(2-Bromo-4-(1,4,4,4-tetrafluoro-3-(3,4,5-trichlorophenyl)but-1-en-1-yl)phenyl)(pyrrolidin-1-yl)methanone], the pest or weed control at 50 µg/cm2 in test [1] and in test [2] was 50 to 100% in each case.

Regarding `O=C(c1ccc(/C(F)=C/C(c2cc(Cl)c(Cl)c(Cl)c2)C(F)(F)F)cc1C(F)(F)F)N1CCCC1` (stereo not drawn) [F6, (Z)-Pyrrolidin-1-yl(4-(1,4,4,4-tetrafluoro-3-(3,4,5-trichlorophenyl)but-1-en-1-yl)-2-(trifluoromethyl)phenyl) methanone], the pest or weed control at 50 µg/cm2 in test [1] and in test [2] was 50 to 100% in each case.

For `Cc1ccc([C@@H](C)NC(=O)c2ccc(/C(F)=C/C(c3cc(Cl)c(Cl)c(Cl)c3)C(F)(F)F)cc2C(F)(F)F)cc1` (stereo partly drawn) [F8, 4-((Z)-1,4,4,4-Tetrafluoro-3-(3,4,5-trichlorophenyl)but-1-en-1-yl)-N—((R)-1-(p-tolyl)ethyl)-2-(trifluoromethyl)benzamide], the pest or weed control at 50 µg/cm2 in test [1] and in test [2] was 50 to 100% each time.

Regarding `O=C(NC1CCC(F)(F)CC1)c1ccc(/C(F)=C/C(c2cc(Cl)c(Cl)c(Cl)c2)C(F)(F)F)cc1Cl` (stereo not drawn) [F9, (Z)-2-Chloro-N-(4,4-difluorocyclohexyl)-4-(1,4,4,4-tetrafluoro-3-(3,4,5-trichlorophenyl)but-1-en-1-yl)benzamide], the pest or weed control at 50 µg/cm2 in test [1] and in test [2] was 50 to 100% in each case.

Consider `O=C(NC1CCC(F)(F)CC1)c1ccc(/C(F)=C/C(c2cc(Cl)c(Cl)c(Cl)c2)C(F)(F)F)cc1Br` (stereo not drawn) [F10, (Z)-2-Bromo-N-(4,4-difluorocyclohexyl)-4-(1,4,4,4-tetrafluoro-3-(3,4,5-trichlorophenyl)but-1-en-1-yl)benzamide], for which the pest or weed control at 50 µg/cm2 in test [1] and in test [2] was 50 to 100% each time.

`O=C(NC1CCCC(F)(F)C1)c1ccc(/C(F)=C/C(c2cc(Cl)c(Cl)c(Cl)c2)C(F)(F)F)cc1C(F)(F)F` (stereo not drawn) [F13, (Z)—N-(3,3-Difluorocyclohexyl)-4-(1,4,4,4-tetrafluoro-3-(3,4,5-trichlorophenyl)but-1-en-1-yl)-2-(trifluoromethyl)benzamide]: the pest or weed control at 50 µg/cm2 in test [1] and in test [2] was 50 to 100% throughout.

On to `COc1cccc([C@@H](C)NC(=O)c2ccc(/C(F)=C/C(c3cc(Cl)c(Cl)c(Cl)c3)C(F)(F)F)cc2C(F)(F)F)c1` (stereo partly drawn) [F14, N—((R)-1-(3-Methoxyphenyl)ethyl)-4-((Z)-1,4,4,4-tetrafluoro-3-(3,4,5-trichlorophenyl)but-1-en-1-yl)-2-(trifluoromethyl)benzamide], for which the pest or weed control at 50 µg/cm2 in test [1] and in test [2] was 50 to 100% throughout.

Take `NC(=O)c1ccc(/C(F)=C/C(c2cc(Cl)c(Cl)c(Cl)c2)C(F)(F)F)cc1C(F)(F)F` (stereo not drawn) [F17, (Z)-4-(1,4,4,4-Tetrafluoro-3-(3,4,5-trichlorophenyl)but-1-en-1-yl)-2-(trifluoromethyl)benzamide]: the pest or weed control at 50 µg/cm2 in test [1] and in test [2] was 50 to 100% each time.

For the compound `CN(C)/C=N/C(=O)c1ccc(/C(F)=C/C(c2cc(Cl)c(Cl)c(Cl)c2)C(F)(F)F)cc1C(F)(F)F` (stereo not drawn) [F18, (E)-N-((dimethylamino)methylene)-4-((Z)-1,4,4,4-tetrafluoro-3-(3,4,5-trichlorophenyl)but-1-en-1-yl)-2-(trifluoromethyl)benzamide], the pest or weed control at 50 µg/cm2 in test [1] and in test [2] was 50 to 100% each time.

Turning to `O=CNC(=O)c1ccc(/C(F)=C/C(c2cc(Cl)c(Cl)c(Cl)c2)C(F)(F)F)cc1C(F)(F)F` (stereo not drawn) [F20, (Z)—N-Formyl-4-(1,4,4,4-tetrafluoro-3-(3,4,5-trichlorophenyl)but-1-en-1-yl)-2-(trifluoromethyl)benzamide], the pest or weed control at 50 µg/cm2 in test [1] and in test [2] was 50 to 100% each time.

Turning to `O=C(NC1CC1)c1ccc(/C(F)=C/C(c2ccc(Cl)c(Cl)c2)C(F)(F)F)cc1C(F)(F)F` (stereo not drawn) [F35, (Z)—N-Cyclopropyl-4-(3-(3,4-dichlorophenyl)-1,4,4,4-tetrafluorobut-1-en-1-yl)-2-(trifluoromethyl)benzamide], the pest or weed control at 50 µg/cm2 in test [1] and in test [2] was 50 to 100% in each case.

`CC(NC(=O)c1ccc(/C(F)=C/C(c2cc(Br)c(Cl)c(Br)c2)C(F)(F)F)cc1C(F)(F)F)C(F)(F)F` (stereo not drawn) [F36, 4-((Z)-3-(3,5-Dibromo-4-chlorophenyl)-1,4,4,4-tetrafluorobut-1-en-1-yl)-2-(trifluoromethyl)-N-(1,1,1-trifluoropropan-2-yl)benzamide]: the pest or weed control at 50 µg/cm2 in test [1] and in test [2] was 50 to 100% throughout.

Take `Cc1cc(C(/C=C(\F)c2ccc(C(=O)NC3CC3)c(C(F)(F)F)c2)C(F)(F)F)cc(C)c1Cl` (stereo not drawn) [F37, (Z)-4-(3-(4-Chloro-3,5-dimethylphenyl)-1,4,4,4-tetrafluorobut-1-en-1-yl)-N-cyclopropyl-2-(trifluoromethyl)benzamide]: the pest or weed control at 50 µg/cm2 in test [1] and in test [2] was 50 to 100% each time.

As for `CC(NC(=O)c1ccc(/C(F)=C/C(c2cc(Cl)c(Br)c(Cl)c2)C(F)(F)F)cc1C(F)(F)F)C(F)(F)F` (stereo not drawn) [F38, 4-((Z)-3-(4-Bromo-3,5-dichlorophenyl)-1,4,4,4-tetrafluorobut-1-en-1-yl)-2-(trifluoromethyl)-N-(1,1,1-trifluoropropan-2-yl)benzamide], the pest or weed control at 50 µg/cm2 in test [1] and in test [2] was 50 to 100% each time.

In the case of `Cc1cc(/C(F)=C/C(c2cc(Cl)c(Cl)c(Cl)c2)C(F)(F)F)ccc1C(=O)NCC(F)(F)F` (stereo not drawn) [F39, (Z)-2-Methyl-4-(1,4,4,4-tetrafluoro-3-(3,4,5-trichlorophenyl)but-1-en-1-yl)-N-(2,2,2-trifluoroethyl)benzamide], the mortality at 5 µg/cm2 in test [1] (setting [3]) came out at 33%; in test [1] (setting [4]), 27%; in test [2] (setting [3]) it was 100%; in test [2] (setting [4]), 100%. The pest or weed control at 50 µg/cm2 in test [1] and in test [2] was 50 to 100% in each case.

In the case of `O=C(NCc1ccnc(Cl)c1)c1ccc(/C(F)=C/C(c2cc(Cl)c(Cl)c(Cl)c2)C(F)(F)F)cc1C(F)(F)F` (stereo not drawn) [F47, (Z)—N-((2-Chloropyridin-4-yl)methyl)-4-(1,4,4,4-tetrafluoro-3-(3,4,5-trichlorophenyl)but-1-en-1-yl)-2-(trifluoromethyl)benzamide], the pest or weed control at 50 µg/cm2 in test [1] and in test [2] was 50 to 100% throughout.

Consider `C[C@H](CNCC(F)(F)F)NC(=O)c1ccc(/C(F)=C/C(c2cc(Cl)c(Cl)c(Cl)c2)C(F)(F)F)cc1C(F)(F)F` (stereo partly drawn) [F61, 4-((Z)-1,4,4,4-Tetrafluoro-3-(3,4,5-trichlorophenyl)but-1-en-1-yl)-N—((R)-1-((2,2,2-trifluoroethyl)amino)propan-2-yl)-2-(trifluoromethyl)benzamide], for which the pest or weed control at 50 µg/cm2 in test [1] and in test [2] was 50 to 100% each time.

What is called mortality is the percentage killed. The term pest or weed control denotes the degree to which the test organism was suppressed or injured, in per cent. Read a low pest or weed control as weak suppression.

These data come from US9924717B2, “Molecules having pesticidal utility, and intermediates, compositions, and processes, related thereto” (Dow AgroSciences LLC, priority 2016, dated 2018).
